In patent US20110263651A1, “NOVEL PIPERIDINE-BUTYRAMIDE DERIVATIVES AND THEIR USE AS MONOAMINE NEUROT[…]-UPTAKE INHIBITORS” (N[…]/S, priority 2008, published 2011):
Counter-ions that a name gives are not always drawn.

Key:
Type in all cases: biochemical
[1] = system: dopamine (DA) reuptake in synaptosomes; assay: Inhibition of DA reuptake in synaptosomes; conditions: 3H-DA, read-out: DA-uptake IC50
Procedure: (§1) Compounds were tested for their ability to inhibit the reuptake of the monoamine neurotransmitters dopamine (DA) noradrenaline (NA) and serotonine (5-HT) in synaptosomes as described in WO 97/16451 (NeuroSearch NS).
(§2) The test values are given as IC50 (the concentration (μM) of the test substance which inhibits the specific binding of ^3H-DA, ^3H-NA, or ^3H-5-HT by 50%).

[2] = system: serotonine (5-HT) reuptake in synaptosomes; assay: Inhibition of 5-HT reuptake in synaptosomes; conditions: 3H-5-HT, read-out: 5-HT-uptake IC50
Procedure: as §1, §2

[3] = system: noradrenaline (NA) reuptake in synaptosomes; assay: Inhibition of NA reuptake in synaptosomes; conditions: 3H-NA, read-out: NA-uptake IC50
Procedure: as §1, §2

Structure (SMILES) | IC50 [1] [µM] | IC50 [2] [µM] | IC50 [3] [µM]
CCN(C(=O)CCCC1CCN(C)CC1)c1ccc(Cl)c(Cl)c1 [Compound 4.1, N-(3,4-Dichloro-phenyl)-N-ethyl-4-(1-methyl-piperidin-4-yl)-butyramide fumaric acid salt] | 0.0069 | 0.8 | 0.012
CCN(C(=O)CCCC1CCNCC1)c1ccc(Cl)c(Cl)c1 [Compound 3.1, N-(3,4-Dichloro-phenyl)-N-ethyl-4-piperidin-4-yl-butyramide fumaric acid salt] | 0.012 | 0.57 | 0.03
